Measurements reported in US6887202B2, “Systems and methods for monitoring health and delivering drugs transdermally” (Science Applications International Corporation, priority 2000, dated 2005).
Where two headings read alike, the source gives them in different places.

Experiments:
[1] = molecular target: T1, α3/β4 nAChR (Rattus norvegicus, UniProt P04757+P12392); test: Frontal chromatography with α3/β4 nAChR-IAM stationary phase ([3H]-EB marker); type: binding
T1 construct: expressed in transfected cells
Experimental: Rat whole forebrain or transfected cells are suspended in 50 mM Tris-HCI, pH 7.4, (buffer A), homogenized for 30 seconds with Brinkmann Polytron, and centrifuged at 40,000×g for 10 min at 4° C. The pellet is resuspended in 6 ml of 2% deoxycholate or 2% cholate in buffer A and stirred for 2 hours. The mixture is centrifuged at 35,000×g for 30 minutes, and the supernatant containing nAChR-deoxycholate solution is collected.
Dried IAM particles are suspended in 4 ml of the obtained detergent solutions containing nAChR subunits or subtypes. For the immobilization of one nAChR subtype, the mixture of IAM-detergent-receptor is stirred for 1 hour at room temperature. The suspension is dialyzed against 2×1 L buffer A for 24 hours at 4° C. The IAM LC support with immobilized nAChRs is then washed with buffer A, centrifuged and the solid collected.
Chromatography based on nAChR-LAMcolumn or nAChR-liposome-Superdex 200 column: The nAChR-IAM particles or nAChR-Superdex gel beads are packed in a HR5/2 glass column and connected to a HPLC pump. […] All chromatographic experiments are performed at flow rate 0.4 ml/min at room temperature.
The chromatographic data is summed up in 1-min intervals and smoothed using the Microsoft Excel program with a 10 point moving average.

[2] = molecular target: T1, α3/β4 nAChR; test: Ligand binding assay using cell membrane homogenates
[3] = molecular target: GABAA receptor; settings: read-out: Kd, Binding Assays; classical binding assays
[4] = molecular target: GABAA receptor; test: Frontal chromatography on immobilized GABAA receptor (GR-IAM), [3H]-flunitrazepam marker; type: binding, rat
Experimental: Supernatant is discarded.
All chromatographic experiments are performed at flow rate 0.4 ml/min at room temperature. […] The chromatographic data is summed up in 1-min intervals and smoothed using the Microsoft Excel program with a 10 point moving average.

[5] = a3/(34-IAM stationary phase (0.5 × 1.3 cm)), read-out: Kd (frontal chromatography)

T1 sequence (P04757 26-499): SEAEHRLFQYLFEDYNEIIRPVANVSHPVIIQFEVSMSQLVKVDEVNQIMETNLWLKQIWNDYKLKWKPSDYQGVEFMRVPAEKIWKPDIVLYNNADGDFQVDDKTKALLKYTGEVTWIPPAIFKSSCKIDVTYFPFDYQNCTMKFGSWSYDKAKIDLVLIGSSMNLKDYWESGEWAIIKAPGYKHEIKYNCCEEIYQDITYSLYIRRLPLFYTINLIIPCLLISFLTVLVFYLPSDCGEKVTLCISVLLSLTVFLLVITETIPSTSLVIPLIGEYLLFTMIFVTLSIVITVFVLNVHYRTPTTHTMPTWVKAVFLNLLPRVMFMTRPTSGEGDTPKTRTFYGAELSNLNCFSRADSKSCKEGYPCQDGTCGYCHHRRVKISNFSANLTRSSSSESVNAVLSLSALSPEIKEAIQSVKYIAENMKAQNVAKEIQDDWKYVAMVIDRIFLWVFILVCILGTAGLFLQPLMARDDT
T1 sequence (P12392 21-495): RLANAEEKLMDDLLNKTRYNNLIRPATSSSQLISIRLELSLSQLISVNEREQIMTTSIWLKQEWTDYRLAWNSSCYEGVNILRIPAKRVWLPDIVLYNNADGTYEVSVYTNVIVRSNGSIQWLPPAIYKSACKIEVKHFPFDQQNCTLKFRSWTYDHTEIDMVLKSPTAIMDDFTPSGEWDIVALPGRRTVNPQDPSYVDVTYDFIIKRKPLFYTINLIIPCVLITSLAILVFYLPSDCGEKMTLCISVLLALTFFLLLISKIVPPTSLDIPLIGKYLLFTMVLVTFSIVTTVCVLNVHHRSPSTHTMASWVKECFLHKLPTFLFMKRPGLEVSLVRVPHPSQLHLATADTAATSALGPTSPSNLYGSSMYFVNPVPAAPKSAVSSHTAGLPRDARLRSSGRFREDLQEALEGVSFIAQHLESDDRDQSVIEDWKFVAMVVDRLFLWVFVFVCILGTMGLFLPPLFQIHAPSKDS

| Structure (SMILES) | mobile phase concentration required to decrease the retention volume of 60 pM [3H]-EB from 9.5 ml to 6 ml [1] | Kd [1, 5] [nM] | Kd [2] [nM] | further results |
| --- | --- | --- | --- | --- |
| CN1CCCC1c1cccnc1 (single isomer, unassigned; (-)) [(−)-Nicotine] | 45 nM | – | – | – |
| c1cncc(OC[C@@H]2CCN2)c1 [A85380] | – | 17.2 ± 0.5 | 73.6 ± 6.3 | mobile phase concentration required to decrease the retention volume of 60 pM [3H]-EB from 9.5 ml to 6 ml ([1]; α3/β4 nAChR column (0.5×1.25 cm)): 1.7 nM |
| CN1[C@@H]2CC[C@H]1C[C@@H](OC(=O)C(CO)c1ccccc1)C2 (stereo partly shown) [Atropine] | – | – | – | Kd [1]: 14600 nM |
| C[N+](C)(C)CCOC(N)=O [Carbachol] | 1,200 nM | 1280 | 3840 | – |
| CN1C(=O)CN=C(c2ccccc2)c2cc(Cl)ccc21 [Diazepam] | – | – | – | Kd [3]: 1.3 nM; Kd [4]: 1 nM |
